Assay [1] deals with T1, Type-2 angiotensin II receptor (Homo sapiens) (UniProt P50052).
T1 sequence (whole entry): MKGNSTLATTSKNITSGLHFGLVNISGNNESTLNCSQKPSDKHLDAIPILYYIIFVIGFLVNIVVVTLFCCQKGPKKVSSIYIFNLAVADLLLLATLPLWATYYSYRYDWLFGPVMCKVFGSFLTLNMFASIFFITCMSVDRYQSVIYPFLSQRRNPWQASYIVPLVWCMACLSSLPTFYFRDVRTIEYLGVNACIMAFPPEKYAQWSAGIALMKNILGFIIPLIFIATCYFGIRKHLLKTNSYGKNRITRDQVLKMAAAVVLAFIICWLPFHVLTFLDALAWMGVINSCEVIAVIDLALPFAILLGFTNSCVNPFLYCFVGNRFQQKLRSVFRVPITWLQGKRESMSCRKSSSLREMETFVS
The experiment in a line: Displacement of [125I]CGP-42112A from human AT2 receptor expressed in HEK293 cells at 10 uM. Type of assay: cell-based. In general terms: In a radioligand displacement assay an active substance lowers the binding of a labelled ligand.

The target in assay [2] is T1, Type-2 angiotensin II receptor (Homo sapiens). The experiment in a line: Displacement of [125I]CGP-42112A from human AT2 receptor expressed in HEK293 cells at 1 uM. In kind it is cell-based.
Assay [3] deals with T2, Type-1 angiotensin II receptor (Homo sapiens) (UniProt P30556).
T2 sequence (whole entry): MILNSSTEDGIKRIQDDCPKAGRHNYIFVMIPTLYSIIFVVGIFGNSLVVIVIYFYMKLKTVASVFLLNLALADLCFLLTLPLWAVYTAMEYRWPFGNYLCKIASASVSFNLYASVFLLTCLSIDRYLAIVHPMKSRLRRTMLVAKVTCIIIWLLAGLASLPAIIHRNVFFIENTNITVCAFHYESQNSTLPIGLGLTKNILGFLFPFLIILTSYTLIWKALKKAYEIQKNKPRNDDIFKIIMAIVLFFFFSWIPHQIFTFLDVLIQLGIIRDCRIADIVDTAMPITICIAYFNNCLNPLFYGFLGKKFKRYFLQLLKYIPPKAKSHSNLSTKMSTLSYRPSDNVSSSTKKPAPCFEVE
The experiment in a line: Binding affinity to AT1 receptor (unknown origin).

Assay [4] concerns the target T3, Type-2 angiotensin II receptor (Homo sapiens, UniProt P50052).
T3 sequence (P50052 whole entry): T1 sequence (whole entry)
As to the kind of experiment: Displacement of [125I]Sarile from human AT2 receptor expressed in HEK293 cells. In kind it is cell-based.

Assay [5] addresses T3, Type-2 angiotensin II receptor. As to the kind of experiment: Displacement of [125I]CGP-42112A from human AT2 receptor expressed in HEK293 cells. Type of assay: cell-based.

The source made the active and inactive calls. The rule behind the calls is not given here. Some results are limits rather than exact numbers.

The term inhibition denotes the change of the read-out against control, counted positive when it falls. In the case of `CC[C@H](C)[C@H](NC(=O)c1cccc(Cn2ccnc2)c1)c1nn[nH]n1`, the inhibition result in assay [1] and in assay [2] was “inactive” throughout. The outcome in assay [3] was inactive.
Broadly, the Ki is a dissociation constant, usually derived from enzyme kinetics or from competition with a known ligand. Read a low Ki as a stronger hold on the target. Take `CC[C@H](C)[C@H](NC(=O)c1cccc(Cn2ccnc2)c1)C(=O)O`: the result in assay [3] was inactive. In assay [4], this compound yielded a Ki of 47 µM.
`CC[C@H](C)[C@H](NC(=O)c1cccc(Cn2ccnc2)c1)C(N)=O`: the inhibition entry in assay [1] and in assay [2] was “inactive” throughout. The outcome in assay [3] was inactive.
`CC[C@H](C)[C@H](NC(=O)c1cccc(Cn2ccnc2)c1)C(=O)NNS(=O)(=O)c1ccccc1`: the Ki in assay [5] is more than 100 µM. The inhibition in assay [1] is 18%; in assay [2] it was 6%. Also, the outcome in assay [3] was inactive.
`CC[C@H](C)[C@H](NC(=O)c1cccc(Cn2ccnc2)c1)C(=O)NNC(=O)OC(C)(C)C` came in with an inhibition constant Ki in assay [5] of more than 100 µM. The outcome in assay [3] was inactive.
Take `CC[C@H](C)[C@H](NC(=O)c1cccc(Cn2ccnc2)c1)C(=O)NCC(F)(F)F`: the inhibition was 14% in assay [1] and 6% in assay [2]. The outcome in assay [3] was inactive.
For `CCCCS(=O)(=O)NC(=O)[C@@H](NC(=O)c1cccc(Cn2ccnc2)c1)[C@@H](C)CC`, the Ki in assay [5] amounted to 9.9 µM. Moreover, the result in assay [3] was inactive.
Turning to `CC[C@H](C)[C@H](NC(=O)c1cccc(Cn2ccnc2)c1)C(=O)NS(=O)(=O)c1ccccc1`, the affinity in assay [5] corresponds to a Ki of 18 µM. Moreover, the figures for the inhibition in assay [1] and in assay [2] were 24% and 5%, respectively. Besides, the outcome in assay [3] was inactive.
Compound `CC[C@H](C)[C@H](NC(=O)c1cccc(Cn2ccnc2)c1)C(=O)NO` yielded an inhibition in assay [1] of 4%. The inhibition entry in assay [2] was “inactive”. The result in assay [3] was inactive.
As for `CC[C@H](C)[C@H](NC(=O)c1cccc(Cn2ccnc2)c1)C(=O)NNS(=O)(=O)c1c(C)cc(C)cc1C`, the Ki in assay [5] was found to be 8.5 µM. The results for the inhibition in assay [1] and in assay [2] were 27% and 10%, respectively. The result in assay [3] was inactive.
In turn, `CCCCNC(=O)[C@@H](NC(=O)c1cccc(Cn2ccnc2)c1)[C@@H](C)CC` returned an inhibition in assay [1] of 3%. Besides, in assay [2], the inhibition result was “inactive”. Moreover, the result in assay [3] was inactive.
Consider `CC[C@H](C)[C@H](NC(=O)c1cccc(Cn2ccnc2)c1)C(=O)Nc1nccs1`, for which the inhibition constant Ki in assay [5] amounted to 42 µM. The inhibition in assay [1] was found to be 17%; in assay [2], 4%. Further, the outcome in assay [3] was inactive.
In the same order, the values of `CC[C@H](C)[C@H](NC(=O)c1cccc(Cn2ccnc2)c1)C(=O)NNS(=O)(=O)c1ccc(C)cc1` are 29 µM, 20%, 4% and “inactive”.
In assay [5], `CCCCS(=O)(=O)NNC(=O)[C@@H](NC(=O)c1cccc(Cn2ccnc2)c1)[C@@H](C)CC` yielded a Ki of more than 100 µM. Besides, in assay [3], the outcome was inactive.
The corresponding values for `CCCCCS(=O)(=O)NNC(=O)[C@@H](NC(=O)c1cccc(Cn2ccnc2)c1)[C@@H](C)CC` are more than 100 µM and “inactive”.
As to `CC[C@H](C)[C@H](NC(=O)c1cccc(Cn2ccnc2)c1)C(=O)NC#N`, the inhibition came out at 9% in assay [1] and 6% in assay [2]. Besides, the result in assay [3] was inactive.
In the case of `CC[C@H](C)[C@H](NC(=O)c1cccc(Cn2ccnc2)c1)C(=O)NNS(=O)(=O)c1ccc(OC)cc1`, in assay [5], the Ki was determined as 9.2 µM. For the same compound, the inhibition came to 20% in assay [1] and 3% in assay [2]. Also, the outcome in assay [3] was inactive.

Values taken from ChEMBL document CHEMBL3102730, “Synthesis and evaluation of isoleucine derived angiotensin II AT(2) receptor ligands” (Bioorg Med Chem Lett, 2014).
